This note sets out measurements from publication PMC10138233 (PLOS ONE, 2023).

Data set [1] deals with SH-SY5Y (human neuroblastoma) cell line. Put plainly: MTT cell viability assay. The conditions noted are these: 48 h. How it is done:
(§1) This study utilized SH-SY5Y (human neuroblastoma) cell lines. […] After dissolving the cell line stored in a nitrogen tank for long-term use, the cells were removed from the culture dish with a 0.25 Trypsin/EDTA solution when they reached 70% density in the culture flasks. The cells were incubated in DMEM (Capricorn) supplemented with 10% heat-inactivated fetal bovine serum (FBS) and 0.1 mg/ml of penicillin at 37°C with 5% CO2. The medium was refreshed every 48 hours, and passages were made every 5 days based on cell confluency.
The MTT (3-(4,5-dimethylthiazol-2-yl)-2,5-diphenyltetrazolium bromide) assay is a commonly used colorimetric assay to measure cellular viability. […] The amount of formazan produced can be measured by determining the absorbance of the solution at a specific wavelength, which is proportional to the number of viable cells. This assay is widely used in cell biology and drug discovery research to evaluate the cytotoxic effects of various agents on cell viability.
In this study, the MTT assay was selected as the cell viability test. 12,500 cells were seeded per well in a 96-well plate. The cells were then incubated at 37°C with 5% CO2 for 24 h. After 24 h, the old medium was removed and drugs prepared by serial dilution in 100 μl of DMEM within the determined concentration range were applied to three wells, with one well selected as a control (untreated). The plate was then incubated at 37°C with 5% CO2 for another 48 h. After 48 h, […] of 10% MTT (Roche) solution in DMEM was added to each well, and two empty wells were added with only MTT solution for background measurement. After 4 h, 100 μl of solubilizing buffer was added to each well. The plate was incubated at 37°C with 5% CO2 for 16 h. After 16 h, the cell number in each sample was determined by measuring the absorbance spectrophotometrically at […] using a microplate reader (OMEGA). The data was used to determine the percentage relative to the control and create a dose-cell viability graph.
(§2) All the analysis data from the RTCA device and the data generated from the MARS application using the microplate reader (OMEGA) were calculated in the GraphPad Prism 9.5.1 version using the ordinary one-way ANOVA multiple comparisons Tukey test. The results were graphically represented in Excel. Logarithmic calculations were made from the dose-response graph in Excel to obtain the IC50 values.
Background: Tetrazolium dyes change colour on reduction, which living cells bring about.

For data set [2] the test system is unchanged. Briefly: xCELLigence Real Time Cell Analysis (RTCA) of cell viability/proliferation. How it is done:
as §1
RTCA system is an analytical technique that follows cellular events such as proliferation by measuring the electric impedance passing through microelectrodes integrated beneath 96-well special plates in real-time. A 16-well e-plate compatible with the RTCA device was used, with 8 wells by 2. Firstly, 100 μl of cell culture was added to the plates to obtain the background density. Then, 3x10^4 cells were seeded in 100 μl of culture medium on top of the culture. After 24 h, the determined concentration ranges were applied.
Therefore, in this study, the concentrations of 5-10-15-25-50 μM were applied to find the optimum dose. […] There was only one study on a different cell line for quinine. […] The concentration range of 25-50-60-70-75-80-100 μM was chosen for etoperidone based on cell viability tests conducted with its analogue, trazadone.
For each selected dose, the drug was applied to two different wells. The first two wells were designated as the control group without drug application. The growth curve data was obtained from the graph generated by the device 48 h after drug application. The RTCA was repeated three times for each drug group. The IC50 calculations and the percent cell viability graphs compared to the control group were obtained from the data obtained from the three repeats.
as §2

What is called IC50 is the concentration that inhibits the measured activity by half. As for `Cc1ncc(C[n+]2csc(CCO)c2C)c(N)n1` [Thiamine], the “cytotoxicity” value is on record as “did not show any cytotoxic effect at any concentration” in data set [1] and “no significant cytotoxicity at any applied concentration” in data set [2] (48 h, RTCA, 150-4800 μM). The “concentration up to which no cytotoxicity was observed (cell index)” value in data set [2] (48 h, RTCA) was at most 4800 µM. Besides, the IC50 in data set [2] (Homo sapiens, 48 h, read-out: IC50 ± SEM) was determined as 18.8 mM. Besides, the “harmful effect on cell viability” value in data set [2] (based on both RTCA and MTT) is “no dose of Thiamine applied exhibited harmful effects”.

For `Nc1nc2[nH]cc(CN[C@H]3C=C[C@H](O)[C@@H]3O)c2c(=O)[nH]1` [Queuine], in data set [1], the “concentration (and below) with cell viability close to the control, no cytotoxicity” value (“concentration (and below) … no cytotoxicity” for short) is at most 1.25 µM and the “cytotoxic concentration in correlation with RTCA findings” value (“cytotoxic concentration in correlation” below) stood at 5 µM. For the same molecule, in data set [2] (48 h, RTCA), the “concentration that significantly reduced cell viability compared to the control group (p < 0.001)” value is 5 µM and the “concentration up to which no cytotoxicity was observed (cell index)” value was at most 1.25 µM. For the same molecule, the “safe optimum concentration that does not harm cell viability” value in data set [2] (based on both RTCA and MTT) came out at 1.25 µM.

`CCc1nn(CCCN2CCN(c3cccc(Cl)c3)CC2)c(=O)n1CC` [Etoperidone]: in data set [1], the “concentration (and below) … no cytotoxicity” value was at most 70 µM and the “cytotoxic concentration in correlation” value came out at 100 µM. In addition, in data set [2] (48 h, RTCA), the “concentration that significantly reduced cell viability compared to the control group (p < 0.001)” value is 100 µM and the “concentration up to which no cytotoxicity was observed (cell index)” value is at most 70 µM. In addition, in data set [2] (based on both RTCA and MTT), the “safe optimum concentration that does not harm cell viability” value worked out at 70 µM.

As for `COc1ccc2c3c1O[C@H]1C[C@@H](O)C=C[C@@]31CCN(C)C2` [Galantamine], in data set [1], the “concentration (and below) … no cytotoxicity” value was at most 10 µM and the “cytotoxic concentration in correlation” value came out at 25 µM. In addition, in data set [2] (48 h, RTCA), the “concentration that significantly reduced cell viability compared to the control group (p < 0.001)” value was determined as 100 µM and the “concentration up to which no cytotoxicity was observed (cell index)” value is at most 10 µM. The “concentration that significantly reduced cell viability compared to the control group (p < 0.001)” value in data set [2] (48 h, RTCA, listed as galantamine) was 25 to 50 µM. In addition, in data set [2] (based on both RTCA and MTT), the “safe optimum concentration that does not harm cell viability” value is 10 µM.
